Laboratory results published in patent US8084647B2, “Two-photon probe for real-time monitoring of intracellular calcium ions, method for preparing the probe and method for real-time monitoring of intracellular calcium ions using the probe” (Korea University Industry and Academy Cooperation Foundation, priority 2007, dated 2011).
Like-named read-outs stand apart in the source and are kept apart here.

Assays:
astrocytes = assay: Two-photon microscopy of cultured astrocytes; type: cell-based, rat; details: cultured astrocytes labeled with 2 μM probe
Protocol: Astrocytes were taken from cerebral cortices of 1-day-old rats (Sprague-Dawley; SD). Cerebral cortices were dissociated in Hank's balanced salt solution (HBSS; Gibco BRL, Gaithersburg, Md., USA) containing 3 U/ml papain (Worthington Biochemical Corporation, NJ, USA) and plated in 75 mm flasks. To prepare purified astrocytes culture, flasks were shaken for 6 h on a shaker at 37° C., and the floating cells that were displaced into the media were removed. Astrocytes were passaged with 5 min exposure to 0.25% trypsin and replated onto poly-D-lysin-coated glass coverslips at 50˜100 cells/mm^2 and were maintained in Dulbecco's modified Eagle's medium (DMEM; Gibco) supplemented with penicillin/streptomycin and 10% fetal bovine serum (FBS; Gibco) in a CO2 incubator at 37° C. After 7-15 days in vitro, astrocytes were washed three times with serum-free media, and then incubated with 2 μM of the compound of Formula 7 in serum-free media for 20 min at 37° C. The cells were washed three times with phosphate buffered saline (PBS; Gibco) and then imaged after further incubation in colorless serum-free media for 15 min.
The spontaneous increase in [Ca^2+]i also propagated between astrocytes, as indicated by the delayed activity in the neighboring astrocyte (FIGS. 15b and 15d).

[1] = One-photon absorption and emission spectra, fluorescence quantum yield; type: physicochemical; details: for Φ fluorescence quantum yield: ±10%
Protocol: The absorption spectra of the compound of Formula 7 were recorded on a Hewlett-Packard 8453 diode array spectrophotometer, and the fluorescence spectra of the compound were obtained with Amico-Bowman series 2 luminescence spectrometer with a 1 cm standard quartz cell. The fluorescence quantum yield of the compound was determined by using Coumarin 307 as the reference by the literature method (J. N. Demas, G. A. Crosby, J. Phys. Chem. 1971, 75, 991-1024.).

[2] = One-photon fluorescence titration with Ca2+ (Kd^OP, enhancement factor, Hill plot); type: binding; details: presence of 39 μM Ca2+
Protocol: A series of calibration solutions containing various [Ca^2+] was prepared by mixing two solutions (solution A containing 10 mM K2EGTA and solution B containing 10 mM CaEGTA) in various ratios. Both solutions contained the compound (1 μM) of Formula 4, 100 mM KCl, 30 mM MOPS, and they were adjusted to pH 7.2.
Then, 203 μl of this solution was discarded and replaced by 203 μl of solution B (39 μM free Ca^2+), and the spectrum was recorded. This brings the CaEGTA concentration to 1.00 mM and the [Ca^2]free to about 0.017 μM with no change in the concentration of the probe or of the total EGTA. The [Ca^2+]free is calculated from the Kd of EGTA for Ca^2+ (150.5 nM) using Equation 2: […]
where F is the observed fluorescence intensity, Fmin is the minimum fluorescence intensity, and Fmax is the maximum fluorescence intensity. The Kd value that best fits the titration curve (FIG. 6) with Equation 5 was calculated by using the Excel program as reported (J. R. Long, R. S. Drago, J. Chem. Ed. 1982, 59, 1037; K. Hirose, J. Incl. Phenom. Macrocycl. Chem. 2001, 39, 193).
The dissociation constants (Kd^OP) were calculated from the fluorescence titration curves (FIG. 6), as reported (J. R. Long, R. S. Drago, J. Chem. Educ. 1982, 59, 1037-1039).

[3] = test system: acute rat hypothalamic slice; assay: Two-photon microscopy of acute rat hypothalamic slices; type: cell-based
Protocol: Slices were prepared from the hippocampi and the hypothalmic of 2-day-old rat (SD). Coronal slices were cut into 400 μm thick using a vibrating-blade microtome in artificial cerebrospinal fluid (ACSF; 138.6 mM NaCl, 3.5 mM KCl, 21 mM NaHCO3, 0.6 mM NaH2PO4, 9.9 mM D-glucose, 1 mM CaCl2, and 3 mM MgCl2). Slices were incubated with the compound (10 μM) of Formula 7 in ACSF bubbled with 95% O2 and 5% CO2 for 30 min at 37° C. Slices were then washed three times with ACSF and transferred to glass-bottomed dishes (MatTek) and observed in a spectral confocal multi photon microscope.

[4] = Reactivity for various metal ions (FIG. 10)
Text: FIG. 10 is a graph showing the reactivity of the compound of Formula 4 for various metal ions;

[5] = Two-photon excited fluorescence (TPEF) titration with Ca2+ (Kd^TP); type: binding; details: estimated from the two-photon titration curve
Text: In order to determine the Kd^TP for the two-photon process, the TPEF spectra were obtained with a DM IRE2 Microscope (Leica) excited by a mode-locked titanium-sapphire laser source (Coherent Chameleon, 90 MHz, 200 fs) set at wavelength 780 nm and output power 1230 mW, which corresponded to approximately 10 mW average power in the focal plane. The TPEF titration curves (FIG. 6) were obtained and fitted to Equation 3.

[6] = Two-photon action spectra / two-photon cross section; type: physicochemical
Protocol: Thus, TPM images for samples stained with the compound of Formula 4 would be much brighter than those stained with commercial probe. In addition, the two-photon fluorescence enhancement factor (TFEF) estimated from the two-photon titration curve was 44 (Table 2), a value that allowed detection of Ca^2+ by TPM.
The two-photon cross section (δ) was determined by using femto second (fs) fluorescence measurement technique (S. K. Lee, W. J. Yang, J. J. Choi, C. H. Kim, S.-J, Jeon, B. R. Cho, Org. Lett. 2005, 7, 323-326).

[7] = Effect of pH on the reactivity (FIG. 11); type: physicochemical; details: biologically relevant pH range
Text: FIG. 11 is a graph showing the effect of pH on the reactivity of the compound of Formula 4;

[8] = previously reported value, cited from earlier work
[9] = 30 mM MOPS, 100 mM KCl, 10 mM EGTA, pH 7.2, absence of free Ca2+
[10] = MOPS buffer pH 7.2, presence of 39 μM free Ca2+
[11] = prolonged observation time in tissue

Compound: CC(=O)c1ccc2cc(N(C)CC(=O)Nc3ccc(N(CC(=O)O)CC(=O)O)c(OCCOc4ccccc4N(CC(=O)O)CC(=O)O)c3)ccc2c1 [Formula 4]
- visualization of calcium waves by TPM (astrocytes): clearly capable of visualizing the intra- and intercellular calcium waves
- λmax^(l) one-photon absorption [1, 9]: 365 nm
- λmax^fl one-photon emission [1, 9]: 498 nm
- Φ fluorescence quantum yield [1, 9]: 0.012
- λmax^(l) one-photon absorption [1, 10]: 365 nm
- λmax^fl one-photon emission [1, 10]: 498 nm
- Φ fluorescence quantum yield [1, 10]: 0.49
- FEF^OP fluorescence enhancement factor (F − Fmin)/Fmin, one-photon [2]: 40
- fluorescence enhancement factor relative to OG1 [2]: ~3 fold
- imaging depth in live tissue ([3]; TPM): ~170 μm
- photo-stability [3, 11]: high photo-stability
- photo-toxicity [3, 11]: low photo-toxicity
- response toward CO^2+ [4]: much weaker response
- response toward Cu^2+ [4]: no response
- response toward Fe^2+ [4]: much weaker response
- response toward Mg^2+ [4]: much weaker response
- response toward Mn^2+ [4]: modest response
- response toward Zn^2+ [4]: modest response
- FEF^TP two-photon fluorescence enhancement factor [5]: 44
- Φδ / TPEF relative to OG1-Ca2+ ([6]; Ca2+ complexes in buffer): 5 fold
- Φδ two-photon action cross section ([6]; presence of 39 μM free Ca2+): 110 GM
- λmax^(2) of the two-photon excitation spectra ([6]; presence of 39 μM free Ca2+): 780 nm
- δ peak two-photon cross section ([6]; presence of 39 μM free Ca2+, ±15%): 230 GM
- pH sensitivity [7]: pH-insensitive

Compound: Oregon Green 488 BAPTA-1 [OG1]
- FEF^OP fluorescence enhancement factor (F − Fmin)/Fmin, one-photon [8]: 14
- FEF^OP fluorescence enhancement factor (F − Fmin)/Fmin, one-photon ([8]; listed as OG1 + Ca^2+): 14^[l]/nd
